Measured values taken from patent US20110129423A1, “ANTICANCER COMPOUNDS AND SCREENING METHOD” (priority 2009, published 2011).
Values joined by “and” are separate entries in the source; they are usually repeats but may differ in a detail not shown here. Identical values can stand only once.

Tests used:
[1] = Toxicity observation in the 28-day dog study; format: in vivo; settings: dogs, 20, 60 or 200 mg/kg oral daily for 28 days
Protocol: (§1) Effects of the test compound 17α-ethynylandrostane-3α,17β-[…] on steroidogenesis in dogs in vivo. Samples were collected from male dogs (5/group) treated with 0, 20, 60 or 200 mg/kg of 17α-ethynylandrostane-3α,17β-diol before dosing on days 1, 14, and 28. The animals were dosed daily for 28 days. The samples were analyzed for testosterone (T), androstendione (A4), and dehydroepiandrosterone (DHEA). Day 1 and day 28 vehicle and 60 mg/kg samples were assayed for luteinizing hormone. The compound was administered by oral administration of a 20 mg/mL 17α-ethynylandrostane-3α,17β-diol solution made of 40% 2-hydroxypropyl-β-cyclodextrin in water.

[2] = test system: systemic (serum) levels of testosterone, estradiol, estrone and DHEA; test: Systemic steroid hormone levels in rats dosed daily for 14 days; format: in vivo, rat; settings: 100 mg/kg daily, by day 7
Protocol: Plasma samples were processed by liquid/liquid extraction using MTBE. The organic portions containing the analytes were evaporated and dried extracts were incubated at 60° C. with a dansyl chloride solution. The resulting steroid derivatives were analyzed on a Waters Xbridge™ Phenyl column by reversed-phase high-performance liquid chromatography (Agilent, Palo Alto, Calif. and Leap Technologies, Carrboro, N.C.) coupled with a tandem quadrupole mass spectrometer (Waters, Beverly, Mass.). Calibration curves for standards and QC samples for […] (Estradiol, E2) and Estrone (E1) were analyzed in parallel with the samples. Sample responses were acquired and concentrations were determined based on the calibration using Masslynx™ analysis software (Waters, Beverly, Mass.). Determination of QC statistics was performed by subtracting the endogenous concentration determined in native plasma from the total concentration found in the QC sample. No PK calculations were performed on this study. The quantifiable range of detection for E2 was 5.0 to 200.0 pg/mL. The quantifiable range of detection for E1 was 10.0 to 200.0 pg/mL. Values below the detection limit were identified as such and reported.
(§2) T, A4 and DHEA assay. Plasma samples were processed by liquid/liquid extraction using MTBE (methyl-t-butyl ether). The organic portions containing the free steroids were evaporated and the dried extracts were incubated at 60° C. with a hydroxylamine hydrochloride solution. The resulting steroid-oxime derivatives were extracted with MTBE. The organic portions containing the steroid-oxime derivatives were evaporated to dryness, reconstituted in 80/20 water/acetonitrile, and analyzed on a Waters Xbridge™ Phenyl column by reversed-phase high-performance liquid chromatography (Agilent, Palo Alto, Calif. and Leap Technologies, Carrboro, N.C.) coupled with a tandem quadrupole mass spectrometer (Waters, Beverly, Mass.). Calibration curves prepared in water and QC samples prepared in native plasma for T (4-androstene-3-one-17β-ol), A4 (4-androstene-3,17-dione), and DHEA were analyzed in parallel with the samples. Sample responses were acquired and concentrations were determined based on the calibration curve using Masslynx™ analysis software (Waters, Beverly, Mass.). Determination of QC statistics was performed by subtracting the endogenous concentration determined in native plasma from the total concentration found in the QC sample.
The quantifiable range of detection for T was 10.0 to 20000.0 pg/mL in rat (example 3) and dog (this example) samples. The quantifiable range of detection for A4 was 10.0 to 20000.0 pg/mL in rats and 20.0 to 20000.0 pg/mL in dogs. The quantifiable range of detection for DHEA was 50.0 to 200.0 pg/mL in both species. […]

steroidogenesis in dogs = test: Effects on steroidogenesis in dogs in vivo (plasma T, A4, DHEA by LC-MS/MS); set-up: species or system dog; settings: for Testosterone Concentrations: male dogs
Protocol: as §1, §2
The quantifiable range of detection for T was 10.0 to 20000.0 pg/mL in rat (example 3) and dog (this example) samples. The quantifiable range of detection for A4 was 10.0 to 20000.0 pg/mL in rats and 20.0 to 20000.0 pg/mL in dogs. The quantifiable range of detection for DHEA was 50.0 to 200.0 pg/mL in both species. Values below the detection limit were identified as such.

ACTH, LH, and FSH = test: Peptide hormone assays (ELISA) in rat plasma; format: in vivo; settings: rats, 100 mg/kg daily for 14 days
Protocol: Peptide Hormone Assays. ELISA kits for the quantification of ACTH, LH, and FSH in rat plasma were obtained from USCN Life, Wuhan, China. All other reagents were obtained from Sigma Chemical Co, St. Louis, Mo. ELISA results were measured on an ELx800 plate reader (Bio-Tek, Winooski, Vt.). Samples were assayed for ACTH, LH, and FSH concentration by means of an ELISA assay kit according to the manufacturer's instructions. For the rat samples, although 100 μL of undiluted plasma were required for each assay, […], 100 μL (LH), or 30 μL (FSH) were used in order to obtain results in the quantifiable range of the assay. Samples from Day 14 were assayed in duplicate; samples from Day 0 and Day 7 were assayed singly due to the small sample volume available. Concentrations were calculated from an eight-point standard curve. Thirty-five μL of dog plasma was used for the LH assay.
The compound 17α-ethynylandrostane-3α,17β-diol (100 mg/kg) was administered to rats (n=5) daily for 14 days. The compound was a 20 mg/mL solution made of […] 2-hydroxypropyl-β-cyclodextrin in water. Vehicle lacking the compound was administered to control animals (n=5). By day 7 in the dosing period, systemic (serum) levels of testosterone, estradiol, estrone and DHEA had fallen by over 99% to essentially undetectable levels in the treated animals. Changes in LH, FSH and ACTH were not observed.

[3] = dogs, end of 28 days of daily oral dosing, dose group not specified

C#C[C@]1(O)CC[C@H]2[C@@H]3CCC4C[C@H](O)CC[C@]4(C)[C@H]3CC[C@@]21C (stereo partly drawn) [17α-ethynylandrostane-3α,17β-diol]
toxicity in the animals [1]: Significant toxicity was not observed
fall of systemic (serum) level of DHEA [2]: over 99%
fall of systemic (serum) level of estradiol [2]: over 99%
fall of systemic (serum) level of estrone [2]: over 99%
fall of systemic (serum) level of testosterone [2]: over 99%
decrease of A4 (androstendione) level compared to vehicle control (steroidogenesis in dogs; [3]): about 99%
decrease of DHEA level (steroidogenesis in dogs; [3]): about 90%
decrease of T (testosterone) level compared to vehicle control (steroidogenesis in dogs; [3]): about 99%
Testosterone Concentrations (steroidogenesis in dogs; 20 mg/kg oral daily, day 1 sample before dosing (baseline), individual animals A111M-A115M, 20 mg/kg): 1747.2 pg/mL and 1677.0 pg/mL and 668.6 pg/mL and 771.4 pg/mL and 2450.6 pg/mL
Testosterone Concentrations (steroidogenesis in dogs; 20 mg/kg oral daily, day 14, individual animals A111M-A115M, 20 mg/kg): 67.8 pg/mL and 51.1 pg/mL and 344.9 pg/mL and 90.1 pg/mL and 94.4 pg/mL
Testosterone Concentrations (steroidogenesis in dogs; 20 mg/kg oral daily, day 28, individual animals A111M-A115M, BQL = below the limit of quantitation (lower limit 10.0 pg/mL), 20 mg/kg): 19.3 pg/mL and 60.8 pg/mL and 143.8 pg/mL and 173.0 pg/mL and BQL
Testosterone Concentrations (steroidogenesis in dogs; 60 mg/kg oral daily, day 1 sample before dosing (baseline), individual animals A121M-A125M, 60 mg/kg): 46.9 pg/mL and 711.2 pg/mL and 723.8 pg/mL and 1371.3 pg/mL and 1659.6 pg/mL
Testosterone Concentrations (steroidogenesis in dogs; 60 mg/kg oral daily, day 14, individual animals A121M-A125M, 60 mg/kg): 173.7 pg/mL and 38.5 pg/mL and 110.4 pg/mL and 144.1 pg/mL and 338.0 pg/mL
Testosterone Concentrations (steroidogenesis in dogs; 60 mg/kg oral daily, day 28, individual animals A121M-A125M, BQL = below the limit of quantitation (lower limit 10.0 pg/mL), 60 mg/kg): 18.9 pg/mL and BQL (4×)
Testosterone Concentrations (steroidogenesis in dogs; 200 mg/kg oral daily, day 1 sample before dosing (baseline), individual animals A131M-A135M, 200 mg/kg): 503.3 pg/mL and 350.3 pg/mL and 1816.6 pg/mL and 1891.0 pg/mL
Testosterone Concentrations (steroidogenesis in dogs; 200 mg/kg oral daily, day 14, individual animals A131M-A135M, BQL = below the limit of quantitation (lower limit 10.0 pg/mL), 200 mg/kg): BQL (2×) and 119.5 pg/mL and 236.6 pg/mL and 18.1 pg/mL
Testosterone Concentrations (steroidogenesis in dogs; 200 mg/kg oral daily, day 28, individual animals A131M-A135M, BQL = below the limit of quantitation (lower limit 10.0 pg/mL), 200 mg/kg): BQL (2×) and 11.2 pg/mL and 10.2 pg/mL
changes in ACTH (ACTH, LH, and FSH): not observed
changes in FSH (ACTH, LH, and FSH): not observed
changes in LH (ACTH, LH, and FSH): not observed
